{"source": "patent US6573060B1", "about": "“Methods and compositions for targeting DNA metabolic processes using aminoglycoside derivatives” (University of Virginia Patent Foundation, priority 1997, dated 2003)", "key": {"DNA-dependent ATPase A": {"molecular_target": "T1, DNA-dependent ATPase A (Bos taurus, UniProt Q9TTA5)", "T1 sequence (Q9TTA5 222-940)": "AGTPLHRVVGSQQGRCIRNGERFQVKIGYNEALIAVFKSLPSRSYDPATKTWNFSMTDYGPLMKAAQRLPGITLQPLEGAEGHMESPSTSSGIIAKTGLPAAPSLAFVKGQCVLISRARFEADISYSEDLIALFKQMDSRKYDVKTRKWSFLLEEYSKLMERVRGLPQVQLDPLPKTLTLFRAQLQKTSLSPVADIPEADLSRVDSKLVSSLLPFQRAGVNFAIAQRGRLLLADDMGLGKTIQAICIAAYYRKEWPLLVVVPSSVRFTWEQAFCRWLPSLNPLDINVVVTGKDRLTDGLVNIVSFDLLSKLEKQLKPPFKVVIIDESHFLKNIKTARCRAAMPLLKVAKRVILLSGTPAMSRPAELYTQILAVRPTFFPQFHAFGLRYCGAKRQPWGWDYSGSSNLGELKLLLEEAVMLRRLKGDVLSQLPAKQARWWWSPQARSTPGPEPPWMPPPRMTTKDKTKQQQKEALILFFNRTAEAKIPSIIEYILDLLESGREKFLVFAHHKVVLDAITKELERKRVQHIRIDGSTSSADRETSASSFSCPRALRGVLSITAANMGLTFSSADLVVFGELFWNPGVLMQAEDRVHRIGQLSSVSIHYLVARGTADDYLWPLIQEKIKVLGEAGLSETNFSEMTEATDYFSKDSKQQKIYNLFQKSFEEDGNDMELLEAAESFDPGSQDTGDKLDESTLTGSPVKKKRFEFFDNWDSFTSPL", "assay": "Inhibition of ATP hydrolysis by DNA-dependent ATPase A (overexpressed 82 kDa ADAAD)", "type": "biochemical, bovine", "settings": "Ki, Table 4; determined in the presence of effector", "experimental": "Enzyme (0.2 units (one unit is the amount of enzyme required to hydrolyze 1 μmole of adenosine triphosphate per min)) was mixed with 50 mM Tris-SO4, pH 7.5, 1 mM MgCl2, 5 mM β-mercaptoethanol, 0.5 mg/mL bovine serum albumin, 2 mM phosphoenol pyruvate, 0.03 mg/mL pyruvate kinase, 10 nM of stem-loop DNA, and 2 mM adenosine triphosphate in a total volume of 100 μL. The reaction was typically incubated at 37° C. for 10-60 minutes. At the end of the designated time, 225 μL of 10% sodium dodecyl sulfate and 350 μL of water were added to stop the reaction. Color development requires the addition of two reagents: 180 μL of reagent A (prepared by mixing equal volumes of 60 to 70% perchloric acid and 5% ammonium molybdate in water) and 45 μL of reagent B (0.2 g 1:2:4 aminonaphthol sulfonic acid, 12.0 g sodium metabisulfite, and 2.4 g sodium sulfite dissolved in 100 mL of water) was added. The reaction was incubated at room temperature for 10 minutes and the absorbance was read at 720 nm. The color development was time-dependent and therefore samples must be read at exactly 10 minutes.\nEnzyme (0.2 units (one unit is the amount of enzyme required to hydrolyze 1 μmole of adenosine triphosphate per min)) was mixed with 25 mM Tris-acetate pH 7.5, 6 mM Mg(acetate)2, 60 mM KCl, 5 mM β-mercaptoethanol, 3 mM phosphoenol pyruvate, 10 units/mL pyruvate kinase, 10 units/mL lactate dehydrogenase 10 nM DNA, 2 mM adenosine triphosphate, and 0.1 mg/mL NADH in a final volume of 1 mL. The progress of the reaction at 37° C. was monitored at 340 nm using an HP8452 spectrophotometer.\nEnzyme (0.2 U) was mixed with 50 mM Tris-SO4, pH 7.5, 1 mM MgCl2, 5 mM β-mercaptoethanol, 0.5 mg/mL bovine serum albumin, 2 mM phosphoenol pyruvate, 0.03 mg/mL pyruvate kinase, 10 nM of stem-loop DNA, and 2 mM adenosine triphosphate in a total volume of 50 μL. Three (3) μCi of [^32P]-γ-adenosine triphosphate was added to the reaction and typical incubation was for 60 minutes 37° C. EDTA (25 mM) was added to stop the reaction. 10 μL of the reaction was spotted on a poly(ethylenimine)-cellulose plate. The plate was developed using 0.9M LiCl and 7M urea as solvent system. The plate was allowed to dry and autoradiographed either using X-OMAT film or a phosphorimager. […]"}, "DNA-independent ATPases": {"test_system": "DNA-independent ATPases", "assay": "Effect on DNA-independent ATPases", "type": "biochemical", "experimental": "(§1) A number of different ATPases, both DNA-dependent and DNA-independent, were analyzed for their behavior with respect to these drugs."}, "DNA-dependent ATPases": {"test_system": "DNA-dependent ATPases", "assay": "Effect of millimolar neomycin on DNA-dependent ATPases", "type": "biochemical", "settings": "millimolar concentrations", "experimental": "as §1\nThis inhibition is directly attributable to the positive charge that the aminoglycosides carry and thus the sequestering of the DNA (negatively charged) away from the enzyme (the binding of kanamycin directly to DNA has been confirmed—data not shown). In addition, the phosphoneomycin has differing effects on DNA-dependent ATPases from various sources and of various function."}, "PC3 cell line": {"test_system": "PC3 cell line", "assay": "MTS cell survival assay, PC3 prostate cancer cells", "type": "cell-based, human", "experimental": "(§2) The effect of phosphoaminoglycosides on tumor cell growth was tested in cell culture inhibition studies. 5000 cells were plated in a total volume of 50 μl in a 96 well titer plate. After 24 hours, 50 μl of media and drugs, to the required final concentration, were added. The plates were incubated at 37° C. for 5 days. On the 5th day, the fraction of surviving cells was estimated using a non-radioactive cell proliferation assay (CellTiter 96 AQueous Cell Proliferation Assay from Promega).\n(§3) This is a colorimetric assay that determines the number of viable cells. The assay measures the bioreduction of a tetrazolium compound (3-(4,5-dimethylthiazol-2-yl)-5-(3-carboxymethoxyphenyl)-2-(4-sulfophenyl)-2H-tetrazolium, inner salt; MTS), via an electron coupling reagent (phenazine methosulfate; PMS), to formazan, which is soluble in the tissue culture medium. The absorbance of formazan at 490 nm can be measured from the 96 well assay plate without additional processing. The conversion of MTS into the aqueous soluble formazan is accomplished by dehydrogenase enzymes found in metabolically active cells. The quantity of formazan product as measured by the amount of 490 nm absorbance is directly proportional to the number of living cells in culture. 100 μl of the PMS reagent (Promega) was mixed with 2.0 ml of MTS solution (Promega). 20 μl of PMS/MTS solution was added to the cells and the plates were incubated at 37° C. for 2 hours before measuring the absorbance at 490 nm.\nIn an initial experiment, four drugs (A-kanamycin, B-phosphokanamycin, C-neomycin, and D-phosphoneomycin) were added to prostate cancer cell cultures in a blind fashion. Two prostate cancer cell lines were incubated with each of the drugs and assayed for cell survivability using the MTS assay (Promega).\n5000 cells were grown overnight in media and each respective drug (A-kanamycin, B-phosphokanamycin, C-neomycin, and D-phosphoneomycin) was added on the second day. […] Each point is the average of readings from three wells."}, "MCF-7": {"test_system": "MCF-7", "assay": "MTS cell survival assay, MCF-7 breast cancer cells", "type": "cell-based", "settings": "MCF-7, FIG. 9", "experimental": "as §2\nas §3, with “100 μl of the PMS reagent (Promega) was mixed with 2.0 ml of MTS solution (Promega).” left out, “nm. […]” for “nm.”"}, "MDA-MB-231": {"test_system": "MDA-MB-231", "assay": "MTS cell survival assay, MDA-MB-231 breast cancer cells", "type": "cell-based", "settings": "MDA-MB-231, FIG. 9", "experimental": "as §2\nas §3, with “100 μl of the PMS reagent (Promega) was mixed with 2.0 ml of MTS solution (Promega).” left out, “nm. […]” for “nm.”"}}, "data": [{"compound": "CN[C@@H]1[C@@H](O)[C@@H](O[C@@H]2[C@@H](O)[C@H](O[C@H]3O[C@H]([C@@H](C)O)[C@@H](O)[C@H](OP(=O)(O)O)[C@H]3N)[C@@H](N)C[C@H]2N)OC[C@]1(C)O", "note": "[phosphogeneticin, 3′-phosphogeneticin]", "values": [{"measurement": "Ki", "setting": "DNA-dependent ATPase A", "result": 191, "unit": "nM"}]}, {"compound": "Neomycin B & C (^˜15% Neomycin C) [reference compound]", "values": [{"measurement": "effect on DNA-independent ATPases (in words)", "setting": "DNA-independent ATPases", "result": "neither affected"}, {"measurement": "inhibition of all DNA-dependent ATPases (in words)", "setting": "DNA-dependent ATPases", "result": "some inhibition"}, {"measurement": "effect on PC3 cells (in words)", "setting": "PC3 cell line; FIG. 8, day five", "result": "neither kanamycin nor neomycin had any effect"}, {"measurement": "effect on PC3 cell survival (in words)", "setting": "PC3 cell line; concentrations in excess of 1 mM", "result": "increased cell survival"}, {"measurement": "effect on cell growth (in words)", "setting": "MCF-7", "result": "no effect"}, {"measurement": "effect on cell growth (in words)", "setting": "MDA-MB-231", "result": "no effect"}]}, {"compound": "CN[C@@H]1[C@@H](O)[C@@H](O[C@@H]2[C@@H](O)[C@H](O[C@H]3O[C@H](CO)[C@@H](O)[C@H](OP(=O)(O)O)[C@H]3N)[C@@H](N)C[C@H]2N)OC[C@H]1O", "note": "[3′ phosphorylated gentamicin]", "values": [{"measurement": "Ki", "setting": "DNA-dependent ATPase A", "result": 219, "unit": "nM"}]}, {"compound": "NCC[C@H](O)C(=O)N[C@@H]1C[C@H](N)[C@@H](O[C@H]2O[C@H](CN)[C@@H](O)[C@H](OP(=O)(O)O)[C@H]2O)[C@H](O)[C@H]1O[C@H]1O[C@H](CO)[C@@H](O)[C@H](N)[C@H]1O", "note": "[3′ phosphorylated amikacin]", "values": [{"measurement": "Ki", "setting": "DNA-dependent ATPase A", "result": 167, "unit": "nM"}]}]}
